Activity calls are given as the source filed them. The rule behind the calls is not given here.

The values that follow come from ChEMBL document CHEMBL4725259 (Bioorg Med Chem, 2020).

In experiment [1] the target is T1, C-C chemokine receptor type 8 (Homo sapiens, UniProt P51685). In words: Agonist activity at human CCR8 expressed in CHO-K1 cells at 20 uM by PathHunter beta-arrestin assay relative to control. In kind it is cell-based.
Experiment [2] concerns the target T2, CX3C chemokine receptor 1 (Homo sapiens) (UniProt P49238).
T2 sequence (whole entry): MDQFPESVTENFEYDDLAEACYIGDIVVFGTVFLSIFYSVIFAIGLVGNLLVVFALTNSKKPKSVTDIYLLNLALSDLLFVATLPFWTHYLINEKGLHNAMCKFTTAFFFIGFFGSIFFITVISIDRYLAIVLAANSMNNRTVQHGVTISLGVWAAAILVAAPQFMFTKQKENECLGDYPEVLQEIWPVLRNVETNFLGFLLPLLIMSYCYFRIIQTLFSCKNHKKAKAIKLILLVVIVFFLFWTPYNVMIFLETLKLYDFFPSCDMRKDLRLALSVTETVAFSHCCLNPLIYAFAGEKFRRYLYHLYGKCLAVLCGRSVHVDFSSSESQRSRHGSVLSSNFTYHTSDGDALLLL
In words: Antagonist activity at human CX3CR1 expressed in CHO-K1 cells at 20 uM by PathHunter beta-arrestin assay relative to control. The format is cell-based. The note with it: filed as antagonist.

For experiment [3], the target named is T3, Follicle-stimulating hormone receptor (Homo sapiens) (UniProt P23945).
T3 sequence (whole entry): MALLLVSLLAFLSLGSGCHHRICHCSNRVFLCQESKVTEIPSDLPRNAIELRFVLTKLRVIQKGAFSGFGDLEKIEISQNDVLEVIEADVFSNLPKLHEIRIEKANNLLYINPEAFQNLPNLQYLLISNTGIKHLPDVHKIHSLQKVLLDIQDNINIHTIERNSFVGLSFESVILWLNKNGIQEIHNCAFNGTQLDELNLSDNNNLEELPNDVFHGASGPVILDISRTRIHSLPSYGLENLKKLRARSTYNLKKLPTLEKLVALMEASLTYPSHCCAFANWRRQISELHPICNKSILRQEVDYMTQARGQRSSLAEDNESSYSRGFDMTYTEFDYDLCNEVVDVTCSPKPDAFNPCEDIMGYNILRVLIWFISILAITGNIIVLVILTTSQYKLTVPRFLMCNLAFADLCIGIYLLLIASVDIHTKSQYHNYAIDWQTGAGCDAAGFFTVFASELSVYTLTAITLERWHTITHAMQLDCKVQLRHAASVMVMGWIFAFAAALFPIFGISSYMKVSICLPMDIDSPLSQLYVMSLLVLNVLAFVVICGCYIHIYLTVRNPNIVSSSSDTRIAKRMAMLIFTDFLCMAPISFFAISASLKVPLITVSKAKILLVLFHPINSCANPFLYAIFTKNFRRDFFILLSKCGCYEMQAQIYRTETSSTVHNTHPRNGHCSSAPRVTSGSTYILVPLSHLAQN
In words: Agonist activity at human FSHR expressed in CHO-K1 cells at 20 uM by PathHunter beta-arrestin assay relative to control. In kind it is cell-based.

The target in experiment [4] is T4, Vasopressin V2 receptor (Homo sapiens, UniProt P30518). In words: Agonist activity at human AVPR2 at 20 uM by PathHunter beta-arrestin assay relative to control.
The target in experiment [5] is T5, Prolactin-releasing peptide receptor (Homo sapiens) (UniProt P49683).
T5 sequence (whole entry): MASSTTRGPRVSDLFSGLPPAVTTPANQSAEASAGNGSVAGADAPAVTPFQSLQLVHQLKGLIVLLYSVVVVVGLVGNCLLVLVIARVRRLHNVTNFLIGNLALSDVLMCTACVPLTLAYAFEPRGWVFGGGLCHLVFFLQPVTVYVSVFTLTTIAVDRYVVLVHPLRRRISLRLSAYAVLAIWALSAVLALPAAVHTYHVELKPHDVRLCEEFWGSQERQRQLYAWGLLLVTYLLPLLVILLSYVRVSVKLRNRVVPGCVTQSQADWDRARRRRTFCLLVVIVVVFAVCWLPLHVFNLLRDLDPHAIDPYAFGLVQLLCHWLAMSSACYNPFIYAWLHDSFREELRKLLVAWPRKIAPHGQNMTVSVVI
In words: Agonist activity at human PRLHR expressed in CHO-K1 cells at 20 uM by PathHunter beta-arrestin assay relative to control. In kind it is cell-based.

The target of experiment [6] is T6, C-C chemokine receptor type 3 (Homo sapiens) (UniProt P51677).
T6 sequence (whole entry): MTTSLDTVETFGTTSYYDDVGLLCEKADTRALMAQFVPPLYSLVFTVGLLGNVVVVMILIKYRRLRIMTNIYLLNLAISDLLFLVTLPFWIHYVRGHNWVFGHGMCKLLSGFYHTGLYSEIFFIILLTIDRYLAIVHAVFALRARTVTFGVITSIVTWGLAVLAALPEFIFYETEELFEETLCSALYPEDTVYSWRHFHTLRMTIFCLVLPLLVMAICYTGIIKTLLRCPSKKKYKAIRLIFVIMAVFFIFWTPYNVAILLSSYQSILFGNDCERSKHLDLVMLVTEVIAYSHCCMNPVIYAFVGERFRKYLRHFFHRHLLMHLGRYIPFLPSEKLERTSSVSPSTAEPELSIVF
In words: Agonist activity at human CCR3 expressed in CHO-K1 cells at 20 uM by PathHunter beta-arrestin assay relative to control. In kind it is cell-based.

Experiment [7] has as its target T3, Follicle-stimulating hormone receptor (Homo sapiens). In words: Antagonist activity at human FSHR expressed in CHO-K1 cells at 20 uM by PathHunter beta-arrestin assay relative to control. In kind it is cell-based. The note with it: filed as antagonist.
Experiment [8] has as its target T7, C-X-C chemokine receptor type 4 (Homo sapiens, UniProt P61073). In words: Agonist activity at human CXCR4 expressed in mouse C2C12 cells at 20 uM by PathHunter beta-arrestin assay relative to control. In kind it is cell-based.
Experiment [9] concerns the target T8, Oxytocin receptor (Homo sapiens) (UniProt P30559).
T8 sequence (whole entry): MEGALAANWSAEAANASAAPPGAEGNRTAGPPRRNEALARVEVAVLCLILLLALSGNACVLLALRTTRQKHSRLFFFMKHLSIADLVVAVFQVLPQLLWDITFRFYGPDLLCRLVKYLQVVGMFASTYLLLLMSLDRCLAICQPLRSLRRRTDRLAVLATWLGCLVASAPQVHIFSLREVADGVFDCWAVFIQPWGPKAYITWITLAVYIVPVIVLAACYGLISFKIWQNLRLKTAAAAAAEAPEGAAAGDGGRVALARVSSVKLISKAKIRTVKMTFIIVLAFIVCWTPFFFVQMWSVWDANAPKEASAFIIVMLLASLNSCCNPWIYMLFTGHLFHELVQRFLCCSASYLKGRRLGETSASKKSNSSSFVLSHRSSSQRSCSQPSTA
In words: Antagonist activity at human OXTR expressed in CHO-K1 cells at 20 uM by PathHunter beta-arrestin assay relative to control. In kind it is cell-based.

For experiment [10], the target named is T2, CX3C chemokine receptor 1 (Homo sapiens). In words: Agonist activity at human CX3CR1 expressed in CHO-K1 cells at 20 uM by PathHunter beta-arrestin assay relative to control. In kind it is cell-based.
Experiment [11] deals with U2OS. In words: Antagonist activity at NPSR1B in human U2OS cells at 20 uM by PathHunter beta-arrestin assay relative to control. In kind it is cell-based.
In experiment [12] the target is T8, Oxytocin receptor (Homo sapiens). In words: Agonist activity at human OXTR expressed in CHO-K1 cells at 20 uM by PathHunter beta-arrestin assay relative to control. The format is cell-based.
The test system of experiment [13] is U2OS. In words: Agonist activity at NPSR1B in human U2OS cells at 20 uM by PathHunter beta-arrestin assay relative to control. In kind it is cell-based.
Experiment [14] concerns the target T4, Vasopressin V2 receptor. In words: Antagonist activity at human AVPR2 at 20 uM by PathHunter beta-arrestin assay relative to control.
In experiment [15] the target is D(2) dopamine receptor (Homo sapiens) (UniProt P14416). In words: Agonist activity at human DRD2L expressed in CHO-K1 cells at 20 uM by PathHunter beta-arrestin assay relative to control. In kind it is cell-based.
For experiment [16] the target is unchanged. In words: Antagonist activity at human DRD2L expressed in CHO-K1 cells at 20 uM by PathHunter beta-arrestin assay relative to control. In kind it is cell-based.
Experiment [17] has as its target T5, Prolactin-releasing peptide receptor (Homo sapiens). In words: Antagonist activity at human PRLHR expressed in CHO-K1 cells at 20 uM by PathHunter beta-arrestin assay relative to control. The note with it: filed as antagonist. In kind it is cell-based.
The target of experiment [18] is T1, C-C chemokine receptor type 8. In words: Antagonist activity at human CCR8 expressed in CHO-K1 cells at 20 uM by PathHunter beta-arrestin assay relative to control. The format is cell-based. The note with it: filed as antagonist.
Experiment [19] addresses T6, C-C chemokine receptor type 3 (Homo sapiens). In words: Antagonist activity at human CCR3 expressed in CHO-K1 cells at 20 uM by PathHunter beta-arrestin assay relative to control. In kind it is cell-based.
Experiment [20] has as its target T9, Oxytocin receptor (Homo sapiens, UniProt P30559).
T9 sequence (P30559 whole entry): T8 sequence (whole entry)
In words: Antagonist activity at human OXTR expressed in CHO-K1 cells by PathHunter beta-arrestin assay. The format is cell-based.

Experiment [21] addresses T7, C-X-C chemokine receptor type 4. In words: Antagonist activity at human CXCR4 expressed in mouse C2C12 cells at 20 uM by PathHunter beta-arrestin assay relative to control. In kind it is cell-based. The note with it: filed as antagonist.

T7 sequence (P61073 whole entry): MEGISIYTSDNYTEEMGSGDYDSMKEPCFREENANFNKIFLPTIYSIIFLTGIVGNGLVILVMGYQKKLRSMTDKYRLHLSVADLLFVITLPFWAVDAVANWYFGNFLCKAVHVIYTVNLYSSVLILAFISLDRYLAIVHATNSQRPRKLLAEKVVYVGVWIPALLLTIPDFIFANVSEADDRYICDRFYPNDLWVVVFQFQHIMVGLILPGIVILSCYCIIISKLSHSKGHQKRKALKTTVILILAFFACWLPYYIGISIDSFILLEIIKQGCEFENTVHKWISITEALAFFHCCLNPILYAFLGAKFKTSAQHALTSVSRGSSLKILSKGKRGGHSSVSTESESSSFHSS
Sequence of D(2) dopamine receptor (Homo sapiens) (P14416 whole entry): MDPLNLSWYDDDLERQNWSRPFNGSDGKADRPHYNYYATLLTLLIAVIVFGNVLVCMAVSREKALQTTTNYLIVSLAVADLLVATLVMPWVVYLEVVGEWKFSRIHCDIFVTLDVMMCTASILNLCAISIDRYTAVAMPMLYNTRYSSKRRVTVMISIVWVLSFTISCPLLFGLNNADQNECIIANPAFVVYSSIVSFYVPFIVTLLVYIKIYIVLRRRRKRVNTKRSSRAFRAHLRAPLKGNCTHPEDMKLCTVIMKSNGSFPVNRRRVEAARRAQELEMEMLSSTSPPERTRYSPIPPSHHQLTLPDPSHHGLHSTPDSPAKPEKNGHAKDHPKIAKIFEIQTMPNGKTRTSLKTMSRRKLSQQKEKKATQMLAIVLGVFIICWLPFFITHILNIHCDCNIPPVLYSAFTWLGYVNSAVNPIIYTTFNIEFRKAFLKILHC
T1 sequence (P51685 whole entry): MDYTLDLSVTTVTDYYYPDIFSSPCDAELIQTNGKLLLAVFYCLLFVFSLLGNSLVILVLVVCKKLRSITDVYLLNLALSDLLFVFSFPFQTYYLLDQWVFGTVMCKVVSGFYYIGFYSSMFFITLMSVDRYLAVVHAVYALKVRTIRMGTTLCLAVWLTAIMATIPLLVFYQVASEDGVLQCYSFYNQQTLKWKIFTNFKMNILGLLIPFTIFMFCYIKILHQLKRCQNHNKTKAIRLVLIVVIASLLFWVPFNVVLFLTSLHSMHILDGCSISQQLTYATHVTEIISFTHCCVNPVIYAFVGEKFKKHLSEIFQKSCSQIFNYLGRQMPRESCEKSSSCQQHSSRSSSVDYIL
T4 sequence (P30518 whole entry): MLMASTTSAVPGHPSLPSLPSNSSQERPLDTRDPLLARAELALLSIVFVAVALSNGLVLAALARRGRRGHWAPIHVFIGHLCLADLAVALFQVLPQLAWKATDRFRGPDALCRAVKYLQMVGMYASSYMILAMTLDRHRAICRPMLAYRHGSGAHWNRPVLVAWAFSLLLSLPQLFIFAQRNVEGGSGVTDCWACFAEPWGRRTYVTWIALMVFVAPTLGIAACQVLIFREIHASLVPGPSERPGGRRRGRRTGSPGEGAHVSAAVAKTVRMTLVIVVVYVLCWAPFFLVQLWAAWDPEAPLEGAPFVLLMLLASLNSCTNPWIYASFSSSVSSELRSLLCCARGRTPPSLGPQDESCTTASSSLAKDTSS

In the case of `COC(=O)[C@@H]1[C@H]2C[C@H]3c4[nH]c5ccccc5c4CCN3C[C@@H]2CC[C@@H]1O`, the result in [1], in experiment [3], in experiment [4], in experiment [5], in experiment [6] and in experiment [8] was inactive. The result in experiment [10], in experiment [12], in experiment [13] and in [15] was inactive. Moreover, the inhibition is 22% in [2]; 4% in experiment [7]; 5% in experiment [9] (filed as antagonist); -3% in experiment [11]; -1% in experiment [14].
For the compound `COC(=O)[C@@H]1[C@H]2C[C@@H]3OCc4ccccc4-n4c3c(c3ccccc34)CCN(C#N)C[C@@H]2CC[C@@H]1O`, the result in experiment [1], in [3], in experiment [4], in [5], in experiment [6] and in experiment [8] was inactive. Also, the result in experiment [10], in [12], in [13] and in [15] was inactive. Also, the inhibition was found to be 3% in experiment [16] (filed as antagonist); 20% in experiment [2]; 5% in experiment [17]; 15% in experiment [18]; 5% in experiment [7]; 2% in [19] (filed as antagonist). Further, the inhibition turned out to be 27% in [9] (filed as antagonist) and 16% in experiment [14] (filed as antagonist).
`Cc1ccccc1N1CCN(S(=O)(=O)CC23CCC(C[C@@H]2NC(=O)[C@@H](N)CCS(C)(=O)=O)C3(C)C)CC1` (stereo partly specified): it took 4.62 nM to reach half-maximal inhibition in experiment [20] (IC50).
`COC(=O)[C@@H]1[C@H]2C[C@@H]([C@@]3(CCn4cc(CCCCO)nn4)C(=O)Nc4ccccc43)N(C#N)C[C@@H]2CC[C@@H]1O`: the outcome in experiment [1], in experiment [3], in experiment [4], in experiment [5], in experiment [6] and in [8] was inactive. The result in experiment [10], in experiment [12], in experiment [13] and in [15] was inactive. Also, the inhibition in [2] worked out at 11%; in experiment [17], 9%; in experiment [18] it was 5%; in experiment [7], 2%; in [9], 0%; in experiment [14] (filed as antagonist) it was 1%.
Take `COC(=O)[C@@H]1[C@H]2C[C@@H]3N(CC[C@@]34C(=O)N(c3cncc(OC)n3)c3ccccc34)C[C@@H]2CC[C@@H]1O`: the outcome in [1], in [3], in [4], in [5], in experiment [6] and in [8] was inactive. The result in experiment [10], in [12], in experiment [13] and in [15] was inactive. Further, the inhibition is -8% in [16]; 9% in experiment [2]; 2% in experiment [17]; 9% in [18]; 11% in experiment [7]; -7% in experiment [19]. In addition, the inhibition in experiment [14] (filed as antagonist) stood at 9%.
For `COC(=O)[C@@H]1[C@H]2C[C@H]3OCc4ccccc4-n4c3c(c3ccccc34)CCN(C#N)C[C@@H]2CC[C@@H]1O`, the result in [1], in experiment [3], in [4], in [5], in experiment [6] and in [8] was inactive. Besides, the outcome in experiment [10], in experiment [12], in experiment [13] and in [15] was inactive. In addition, the inhibition in experiment [21] was 10%; in experiment [16] it was -2%; in [2], 9%; in [18], 10%; in experiment [7] it was 12%; in experiment [19] it was -2%. For the same compound, the inhibition in experiment [9] is 0%; in experiment [11] (filed as antagonist), 1%; in [14], -1%.
